According to the supplement of paper PMC10307832:

Assays:
Experiment in all cases: relative viability (nuclei count vs DMSO), 5 days (fraction); higher = more cells survive
AZ628 + Tozasertib = compound: CC1=C(C=C(C=C1)NC(=O)C2=CC(=CC=C2)C(C)(C)C#N)NC3=CC4=C(C=C3)N=CN(C4=O)C [AZ628] + Cc1cc(Nc2cc(N3CCN(C)CC3)nc(Sc3ccc(NC(=O)C4CC4)cc3)n2)n[nH]1 [Tozasertib] (partner 0.1 µM)
Outline: (§1)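 Relative viability equals treated-well nuclei counts divided by vehicle-well nuclei counts. Counts came from 4× images of lung cancer cell lines grown in 1536-well plates for 5 days after pin-tool dosing on the day after seeding. Dosing used one drug alone or a fixed anchor-drug dose plus five library-drug doses (not always all listed) in √10 steps, and values are medians of duplicate plates.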

[1] = compound: C[As](C)SC[C@H](NC(=O)CC[C@H](N)C(=O)O)C(=O)NCC(=O)O [Darinaparsin] + Nc1ncn([C@H]2C[C@H](O)[C@@H](CO)O2)c(=O)n1 [Decitabine] (partner 2 µM)
Outline: as §1

[2] = compound: C[As](C)SC[C@H](NC(=O)CC[C@H](N)C(=O)O)C(=O)NCC(=O)O [Darinaparsin] + CC(=O)c1c(C)c2cnc(Nc3ccc(N4CCNCC4)cn3)nc2n(C2CCCC2)c1=O [Palbociclib] (partner 0.5 µM)
Outline: as §1

Darinaparsin + Alpelisib = compound: C[As](C)SC[C@H](NC(=O)CC[C@H](N)C(=O)O)C(=O)NCC(=O)O [Darinaparsin] + Cc1nc(NC(=O)N2CCC[C@H]2C(N)=O)sc1-c1ccnc(C(C)(C)C(F)(F)F)c1 [Alpelisib] (partner 2 µM)
Outline: as §1

| Cell Line | relative viability (AZ628 + Tozasertib; first compound 0.08 µM) | relative viability (AZ628 + Tozasertib; first compound 0.253 µM) | relative viability (AZ628 + Tozasertib; first compound 0.8 µM) | relative viability (AZ628 + Tozasertib; first compound 2.53 µM) | relative viability (AZ628 + Tozasertib; first compound 8 µM) | relative viability ([1]; first compound 0.08 µM) | relative viability ([1]; first compound 0.8 µM) | relative viability ([1]; first compound 2.53 µM) | relative viability ([1]; first compound 8 µM) | relative viability ([2]; first compound 0.08 µM) | relative viability ([2]; first compound 0.8 µM) | relative viability ([2]; first compound 2.53 µM) | relative viability ([2]; first compound 8 µM) | relative viability (Darinaparsin + Alpelisib; first compound 0.08 µM) | relative viability (Darinaparsin + Alpelisib; first compound 0.8 µM) | relative viability (Darinaparsin + Alpelisib; first compound 2.53 µM) | relative viability (Darinaparsin + Alpelisib; first compound 8 µM) |
| --- | --- | --- | --- | --- | --- | --- | --- | --- | --- | --- | --- | --- | --- | --- | --- | --- | --- |
| NCI-H647 | 0.293 | 0.262 | 0.296 | 0.269 | 0.146 | 0.444 | 0.39 | 0.346 | 0.476 | 0.467 | 0.406 | 0.357 | 0.561 | 1.57 | 1.16 | 0.827 | 1.31 |
| NCI-H441 | 0.647 | 0.613 | 0.676 | 0.556 | 0.445 | 0.255 | 0.21 | 0.245 | 0.19 | 0.264 | 0.214 | 0.21 | 0.188 | 0.774 | 0.635 | 0.809 | 0.893 |
